The values that follow come from a melting point compilation (Tetko et al.; mined from patent text by program, amines drawn as free bases though some values may be those of a salt).

Each structure is given as a SMILES string.

For the compound `COc1ccc(C2(COC(C)=O)CCC(=O)CC2)cc1`, the melting point was in the range of 86.5 to 88 °C.
The result for `C=C(C)OC(=O)N1c2ccc(C)cc2NC(=O)C1(C)C` reads 185 °C.
The result for `O=C(O)[C@H](Cc1c[nH]c2ccccc12)NS(=O)(=O)c1ccc(N2CCC(c3ccccc3)CC2)cc1` reads 103 to 107 °C; that for `Clc1ccc2oc(C3CCNCC3)cc2c1`, 77 to 78 °C.
`Nc1ccc(-c2ncon2)cc1`: the melting point is 97 to 100 °C.
The result for `Cc1nc2c(N)nc3ccccc3c2n1Cc1cc(-c2ccc(F)cc2)no1` reads 294 to 296 °C.
Compound `Cc1ncsc1CCOc1ccc(NC(=O)c2cc(F)cc(N3CCOCC3)c2)c2ccccc12` came in with a melting point of 186 to 187 °C.
The result for `NCCc1cc(F)cc(C(F)(F)F)c1` reads above 170 °C.
The result for `N#Cc1ccc(C(O)Cc2ccc(C#N)cc2[N+](=O)[O-])cc1` (stereo not drawn) reads 147 to 153 °C.
`Cc1nnc2nc(-c3ccccc3)ccn12` showed a melting point of 303 to 306 °C.
Take `CC1(C)OCC(C(O)CNC(=O)c2cc(C(=O)NCC(O)C3COC(C)(C)O3)cc(S(=O)(=O)Nc3ccc(F)c(C(F)(F)F)c3)c2)O1` (stereo not drawn): the melting point was 217 to 218 °C.
The result for `O=C(CN(CCOCc1ccccc1)Cc1ccccc1)Nc1ccc2c3c(nn2CCN(CCOCc2ccccc2)Cc2ccccc2)-c2cc(O)ccc2Oc13` reads 106 to 110 °C; that for `CC(C)Cn1c(CCCCNC(=O)OC(C)(C)C)nc2c(N)nc3ccccc3c21`, 165 to 167 °C.
The result for `CC(C)N(C(=O)CBr)C(C)C` reads 64 to 65.5 °C; that for `CCCc1cn(CC(=O)OCC)nc1OCc1ccc2ccccc2n1`, 82 to 83 °C.
Compound `CC(C)(C)c1cc(C=C2SCN(C3CC3)C2=O)cc(C(C)(C)C)c1O` had a melting point of 162 to 164 °C.
`Cc1ccc(C(=O)NC(NC(=S)Nc2c(F)cccc2F)C(F)(F)F)cc1` (stereo not drawn) returned a melting point of 185 to 186 °C.
The result for `CS(=O)(=O)OCc1cc(-c2ccc3c(c2)CCO3)nn(Cc2ccccc2Cl)c1=O` reads 118 to 119 °C; that for `O=C(O)C1CCc2c(sc3cc(F)ccc23)C1` (stereo not drawn), 195 to 198 °C; that for `O=C1OC(CCOc2cccc3ccccc23)C(O)=C1O` (stereo not drawn), 163 to 164 °C.
Compound `O=S1(=O)NCN(CCF)c2ccc(Br)cc21` registered a melting point of 122 to 124 °C.
The compound `COc1ccc(Cl)cc1C1(F)C(=O)Nc2c(C(F)(F)F)cccc21` (stereo not drawn) came in with a melting point of 230 to 233 °C.
The result for `Fc1ccc(C(c2ccc(Cl)cc2Cl)C(F)n2cncn2)cc1` (stereo not drawn) reads 96 to 104 °C.
Consider `CCOC(=O)c1cc2c(OCC3CO3)cccc2[nH]1` (stereo not drawn), for which the melting point is 142 to 144 °C.
Compound `CCCC(Cc1ccc(OCCN2CCCCCC2)cc1)(C(=O)OCC)S(=O)(=O)c1ccc(OC)cc1` (stereo not drawn) showed a melting point of 55 °C.
Compound `CC(=O)n1ncc2c(O)cc(C)cc21` returned a melting point of 191 to 192 °C.
The result for `CNc1ncnc(N)c1N` reads 180 to 185 °C; that for `Fc1ccc(-n2cc(OCCN3CCCCC3)c3cc(Cl)ccc32)cc1`, 82 to 84 °C.
The result for `CC(=O)NCc1ccc(CN2CCN(c3ccc(F)cc3)CC2)cc1Cl` reads 141 to 142 °C.
The result for `Cc1ccc(-c2ccc3c(c2)C=C(C(=O)Nc2ccc(CN(C)C4CCOCC4)cc2)CC(c2ccccc2)O3)cc1` (stereo not drawn) reads 178 to 179 °C.
On to `CC12CCC3C(CCC4=CC(=O)CCC43C=O)C1CCC2O` (stereo not drawn), for which the melting point was in the range of 125 to 127 °C.
`CCC1(CCCCN2CCN(c3ccccn3)CC2)C(=O)Nc2ccc(F)cc21` (stereo not drawn) registered a melting point of 144 to 147 °C.
`Cc1nnc2n1-c1sc(C(=O)O)cc1C(c1ccccc1Cl)=NC2`: the melting point worked out at 302 °C.
For `CCCn1c(=O)[nH]c2cc(Cl)cc(Cl)c2c1=O`, the melting point was in the range of 223 to 234 °C.
The result for `CCCCc1nc2ccccc2n1-c1ccc(O)cc1` reads 192 to 194 °C.
The result for `Nc1nc(N)c(C(=O)N=CNNC(=O)n2ccnc2)nc1F` reads 227 to 230 °C; that for `COc1ccc(C(=O)/C=C/c2ncn(C(c3ccccc3)(c3ccccc3)c3ccccc3)c2C)c2ccccc12`, 235 to 237 °C.
Consider `COc1ccc(NC(=O)N(Cc2ccccc2)Cc2cccnc2)c(NC(=O)c2cc(C(C)(C)C)c(O)c(C(C)(C)C)c2)c1`, for which the melting point was in the range of 120 to 128 °C.
The result for `OCc1coc(-c2cccs2)n1` reads 98 to 99 °C.
The result for `OC1CSC(Oc2cncc(-c3ccccc3F)c2)C(O)C1O` (stereo not drawn) reads 206 to 208 °C.
The result for `CC(C)(O)c1nc(-c2ccc(-c3cnc4[nH]c(=O)n(CC5CCOCC5)c4n3)cc2)n[nH]1` reads 249 to 253 °C; that for `CN1c2ccccc2C2CCN(CCC(C(=O)N3CCCCCC3)c3ccccc3)CC21` (stereo not drawn), 150 °C; that for `COCc1ccn2nc(S(=O)(=O)Nc3c(C)cccc3Cl)nc2n1`, 196 °C.
`CC#CCOc1cc(Cc2cccc(F)c2)ncn1` registered a melting point of 51.5 °C.
The result for `CC(C)(C)c1cccc(S(=O)(=O)n2c(Cc3ccc(C(=O)O)cc3F)cc3cc(C(F)(F)F)ccc32)c1` reads 177 °C; that for `O=C(CN1C(=O)C2(COc3cc4c(cc32)OCCO4)c2ccccc21)Nc1ccccc1F` (stereo not drawn), 117 to 119 °C; that for `OC(CCN1CCCC1)c1ccc(C2CCCCC2)c(Cl)c1` (stereo not drawn), 90 °C.
With `CC(=O)Nc1ccc(C(C)=O)cn1`, the melting point is 146 to 147 °C.
The result for `CCCCOc1ncc(-c2ccco2)cc1-c1nc2c(CC)n(CCOC)nc2c(=O)[nH]1` reads 154 to 155 °C; that for `COc1ccc(C#Cc2cccc(CN(O)C(C)=O)c2)cc1`, 124 to 126 °C; that for `Cn1cc(C(N)=O)c(=O)c2ccc(C(C)(C)C)cc21`, 268 to 270 °C.
The compound `Brc1ccc(-c2cnc(-c3ccccc3)nc2)cc1` displayed a melting point of 194 °C.
The result for `CCCCc1nc2ccc(C(C)O)cc2c(=O)n1Cc1ccc(-c2ccccc2-c2nnn[nH]2)cc1` (stereo not drawn) reads 146 to 147 °C; that for `CC(C)(C)OC(=O)c1ccccc1-c1ccc(CNC(=S)NN)cc1`, above 45 °C; that for `CCc1cc(C(=O)c2ccccc2Cl)c(-n2c(CNC(=O)c3cc4ccccc4[nH]3)nnc2C23CC4CC(CC(C4)C2)C3)s1`, 283 to 286 °C.
The result for `Cc1cc(-c2ccccc2)nn2cnnc12` reads 150 to 151 °C.
The result for `CCCC1=NN(c2ccc(C(N)=O)cc2)C(=O)C1=CNc1ccccc1CC` reads 170 °C; that for `COc1cc(C2=NCCc3cc(C)ccc32)cc(OC)c1OC`, 105 to 106 °C; that for `CC(C)c1nc(CN)n(C)c1Sc1cccc(Cl)c1`, 99 to 101 °C.
The compound `Cc1ccccc1-c1c(-c2ccc(S(C)(=O)=O)cc2)oc2ccccc2c1=O` yielded a melting point of 190 to 191 °C.
Consider `Cc1c(Cl)cccc1Nc1ncccc1C(=O)OC1OC(=O)c2ccccc21` (stereo not drawn), for which the melting point was in the range of 178 to 180 °C.
`O=C1CCC(N2Cc3c(OCc4cccc(Cl)c4Cl)cccc3C2=O)C(=O)N1` (stereo not drawn) came in with a melting point of 272 to 274 °C.
The result for `COC(=O)CCc1cc(C(=O)c2cccc(C(=O)OC)n2)ccc1O` reads 121 to 122 °C; that for `Cc1nn(Cc2ccccc2)c2c1C(=O)CC(C)(C)C2`, 133 to 134 °C.
Consider `NC(C(=O)O)C(O)CC(=O)O` (stereo not drawn), for which the melting point was 137 to 138 °C.
For the compound `N#Cc1ccc(OCCCN2CCC(C(O)(c3ccc(F)cc3)c3ccc(F)cc3)CC2)cc1`, the melting point is 107 to 108 °C.
Compound `CC(=O)N1CCc2cc([N+](=O)[O-])cc(C#N)c21` yielded a melting point of 245 to 255 °C.
The result for `Cc1ccc(CNC(=O)c2cc3c(ccc4cnn(C[C@H](C)N)c43)o2)o1` reads 118 to 120 °C; that for `Cc1cc(Nc2ccccc2C(=O)O)n(Cc2ccncc2)n1`, 235 to 238 °C; that for `c1ccc2c(c1)Oc1ccncc1O2`, 102 to 108 °C.
As for `CC1NC(=O)NN=C1c1ccc2c(c1)CCC(=O)N2CCO` (stereo not drawn), the melting point is 237 to 243 °C.
For `O=C(Nc1ccc(-c2ncc(-c3ccc(NC(=O)C4CCCCCC4)cc3)[nH]2)cc1)c1ccc([N+](=O)[O-])cc1`, the melting point lay in the range of 236 to 238 °C.
Turning to `CNC(=O)N(OC(=O)OC)c1ccc(Cl)c(Cl)c1`, the melting point was 110 °C.
In turn, `COC(=O)C(CCSC)c1nc(C)nc2c1nnn2-c1ccc(C(C)C)cc1Br` (stereo not drawn) registered a melting point of 135 to 137 °C.
The result for `CCC1C(=O)Nc2cccc3c2N1C(=O)C3c1ccccc1` (stereo not drawn) reads 205 to 208 °C; that for `CC(=O)Oc1ccc(-c2cc(=O)c3cccnc3o2)cc1`, 167 to 169 °C; that for `O=C(O)COCCOCCN1CCC(=C(c2ccccc2)c2ccccc2)CC1`, 120 to 123 °C.
`CCOC(=O)C1=C(COCCN=[N+]=[N-])NC(C)=C(C(=O)OC)C1c1cccc(C(F)(F)F)c1Cl` (stereo not drawn): the melting point lay in the range of 143 to 145 °C.
In turn, `O=C1CCN(c2ccccc2)N1CN1C(=O)c2ccccc2S1(=O)=O` registered a melting point of 209 to 213 °C.
The result for `COC(=O)CSCCCCN(c1cnc(-c2ccccc2)c(-c2ccccc2)n1)C(C)C` reads 64 to 67 °C; that for `CCCCCCCCc1c(CCCCCCCC)c(-c2ccccc2)n(-c2ccc(C)cc2)c1-c1ccccc1`, 100 to 101 °C.
The result for `CC(=O)N1CCN(C(=O)c2cc3ccnc(Cl)c3[nH]2)CC1` reads 179 to 184 °C; that for `CC(=O)Nc1ccc(S(=O)(=O)NCC2CCN(C[C@H]3COc4ccc5[nH]ccc5c4O3)CC2)cc1`, 133 to 134 °C.
As for `O=C1C(O)=C(c2ccccc2)C(=O)C(O)=C1/C=C/c1ccccc1`, the melting point was in the range of 259 to 260 °C.
Compound `COc1cc(-n2nc3ccc(Cl)cn3c2=O)c(F)cc1Cl` returned a melting point of 140 to 142 °C.
As for `COc1ccc(CN2C(=O)CN(Cc3cccc(I)c3)S2(=O)=O)cc1`, the melting point fell in the range of 98 to 100 °C.
The result for `CCCCc1nc(S(C)=O)c(C(=O)OCC)n1CC1Oc2ccc(Cl)cc2O1` (stereo not drawn) reads 103 °C; that for `CC(C)C(=O)NC1CCc2c(c3cc(-c4nnc(N)s4)ccc3n2Cc2cccc(F)c2)C1` (stereo not drawn), 251 to 254 °C.
